Test results as given in the supplement of paper PMC11061612.

Legend:
RH-18 (Rhabdomyosarcoma) [1] = test: Bliss excess, mean over the matrix (fraction); higher = more synergy
How it was run: (§1)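 Cell lines in DMEM/F12 or RPMI with 10% FBS were plated in 1536-well plates, held 24 hours at 37°C, 5% CO2, then given two-drug dose matrices for 72 hours (DMSO typically 0.2%). Viability was read by CellTiter-Glo 2.0 luminescence and scaled as inhibition from 0 (vehicle wells) to 1 (blank wells). Combination Emax is the second-highest inhibition in the matrix; Bliss excess is observed combination effect minus expected EA + EB − EA·EB, EA and EB being single-agent effects.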

SIMA (Neuroblastoma) [2] = test: as above
How it was run: as §1

[3] = system: CAPAN-1 (Pancreatic Carcinoma); test: combination Emax (second highest fraction inhibited in the dose matrix, 72 h); higher = more inhibition; extreme values may be limits of the assay
How it was run: as §1

[4] = system: EN (Endometrial Carcinoma); test: as above
How it was run: as §1

HMV-II (Melanoma) = test: as above
How it was run: as §1

Mewo (Melanoma) = test: as above
How it was run: as §1

[5] = system: NCI-H747 (Colorectal Carcinoma); test: as above
How it was run: as §1

RH-18 (Rhabdomyosarcoma) [6] = test: as above
How it was run: as §1

[7] = system: RKO (Colorectal Carcinoma); test: as above
How it was run: as §1

[8] = system: RPMI-6666 (Non-Cancerous); test: as above
How it was run: as §1

SIMA (Neuroblastoma) [9] = test: as above
How it was run: as §1

[10] = system: UMC-11 (Other Solid Carcinomas); test: as above
How it was run: as §1
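Wherever Bliss excess, mean over the matrix is given: after 72 h of two-drug dosing.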

SMILES	Bliss excess (RH-18 (Rhabdomyosarcoma) [1])	Bliss excess (SIMA (Neuroblastoma) [2])	combination Emax [3]	combination Emax [4]	combination Emax (HMV-II (Melanoma))	combination Emax (Mewo (Melanoma))	combination Emax [5]	combination Emax (RH-18 (Rhabdomyosarcoma) [6])	combination Emax [7]	combination Emax [8]	combination Emax (SIMA (Neuroblastoma) [9])	combination Emax [10]
COc1cccc(OCCCN)c1-c1cc(Nc2cnc(C#N)cn2)n[nH]1 [Prexasertib] + C[C@@H]1COCCN1C2=NC(=NC(=C2)C3(CC3)[S@](=N)(=O)C)C4=C5C=CNC5=NC=C4 [AZD6738] (first compound max 1 µM, 7x7, partner max 10 µM)	0.076	-0.0198	0.527	0.726	0.565	0.479	0.443	0.475	0.946	0.955	0.989	0.866
COc1cccc2c1C(=O)c1c(O)c3c(c(O)c1C2=O)C[C@@](O)(C(=O)CO)C[C@@H]3O[C@H]1C[C@H](N)[C@H](O)[C@H](C)O1 [Doxorubicin] + Cc1cc2ncnn2cc1Nc1ncc2c(n1)n(C1CCOCC1)c(=O)n2C [AZD7648] (first compound max 1 µM, 7x7, partner max 10 µM)	0.0463	0.0859	0.511	0.735	0.907	0.599	0.743	0.76	0.91	0.971	0.854	0.613
CCN(CCO)CCCOc1ccc2c(Nc3cc(CC(=O)Nc4cccc(F)c4)[nH]n3)ncnc2c1 [AZD2811] + C[C@@H]1COCCN1C2=NC(=NC(=C2)C3(CC3)[S@](=N)(=O)C)C4=C5C=CNC5=NC=C4 [AZD6738] (first compound max 1 µM, 7x7, partner max 10 µM)	-0.0336	-0.0332	0.442	0.609	0.313	0.49	0.306	0.344	0.853	0.833	0.766	0.799
Cc1cc2ncnn2cc1Nc1ncc2c(n1)n(C1CCOCC1)c(=O)n2C [AZD7648] + CN(C)CCCOc1ccc(-c2ccc3ncc4c(c3c2)n(C2CCOCC2)c(=O)n4C)cn1 [AZD0156] (first compound max 10 µM, 7x7, partner max 1 µM)	-0.0092	0.0504	0.31	0.35	0.342	0.285	0.387	0.333	0.391	0.359	0.312	0.21
C[C@@H]1COCCN1c1cc(C2([S@](C)(=N)=O)CC2)nc(-c2ccnc3[nH]ccc23)n1 [AZD6738] + O=C(c1cc(Cc2n[nH]c(=O)c3ccccc23)ccc1F)N1CCN(C(=O)C2CC2)CC1 [Olaparib] (first compound max 10 µM, 7x7, partner max 10 µM)	0.012	-0.0498	0.442	0.535	0.374	0.548	0.356	0.406	0.845	0.816	0.642	0.561
COc1cc2c(cc1OCCCCCOc1cc3c(cc1OC)C(=O)N1C=C(C)C[C@H]1C=N3)N=C[C@@H]1CC(C)=CN1C2=O [SG3199] + O=C(c1cc(Cc2n[nH]c(=O)c3ccccc23)ccc1F)N1CCN(C(=O)C2CC2)CC1 [Olaparib] (first compound max 0.001 µM, 7x7, partner max 10 µM)	-0.0378	-0.0214	0.198	0.148	0.118	0.106	0.0668	0.174	0.114	0.501	0.421	0.168
Cc1cc2ncnn2cc1Nc1ncc2c(n1)n(C1CCOCC1)c(=O)n2C [AZD7648] + O=C(c1cc(Cc2n[nH]c(=O)c3ccccc23)ccc1F)N1CCN(C(=O)C2CC2)CC1 [Olaparib] (first compound max 10 µM, 7x7, partner max 10 µM)	-0.0417	-0.02	0.237	0.301	0.252	0.138	0.241	0.182	0.242	0.584	0.192	0.244
COc1cccc(OCCCN)c1-c1cc(Nc2cnc(C#N)cn2)n[nH]1 [Prexasertib] + C=CCn1c(=O)c2cnc(Nc3ccc(N4CCN(C)CC4)cc3)nc2n1-c1cccc(C(C)(C)O)n1 [AZD1775] (first compound max 1 µM, partner max 1 µM)	0.154	0.0181	0.577	0.859	0.708	0.599	0.746	0.492	0.974	0.955	0.993	0.936
Cc1cc2ncnn2cc1Nc1ncc2c(n1)n(C1CCOCC1)c(=O)n2C [AZD7648] + C[C@@H]1COCCN1C2=NC(=NC(=C2)C3(CC3)[S@](=N)(=O)C)C4=C5C=CNC5=NC=C4 [AZD6738] (first compound max 10 µM, 7x7, partner max 10 µM)	0.0727	0.0326	0.495	0.62	0.442	0.5	0.408	0.365	0.865	0.797	0.904	0.537
CN(C)CCCOc1ccc(-c2ccc3ncc4c(c3c2)n(C2CCOCC2)c(=O)n4C)cn1 [AZD0156] + C=CCn1c(=O)c2cnc(Nc3ccc(N4CCN(C)CC4)cc3)nc2n1-c1cccc(C(C)(C)O)n1 [AZD1775] (first compound max 1 µM, partner max 1 µM)	-0.0645	-0.006	0.394	0.512	0.401	0.47	0.414	0.337	0.719	0.923	0.873	0.377
Cc1cc2ncnn2cc1Nc1ncc2c(n1)n(C1CCOCC1)c(=O)n2C [AZD7648] + CCN(CCO)CCCOc1ccc2c(Nc3cc(CC(=O)Nc4cccc(F)c4)[nH]n3)ncnc2c1 [AZD2811] (first compound max 10 µM, 7x7, partner max 1 µM)	0.0148	0.0728	0.299	0.519	0.37	0.259	0.306	0.333	0.409	0.584	0.532	0.701
COc1cccc(OCCCN)c1-c1cc(Nc2cnc(C#N)cn2)n[nH]1 [Prexasertib] + CN(C)CCCOc1ccc(-c2ccc3ncc4c(c3c2)n(C2CCOCC2)c(=O)n4C)cn1 [AZD0156] (first compound max 1 µM, 7x7, partner max 1 µM)	-0.0006	0.0111	0.611	0.762	0.517	0.531	0.37	0.426	0.891	0.977	1	0.902
CCN(CCO)CCCOc1ccc2c(Nc3cc(CC(=O)Nc4cccc(F)c4)[nH]n3)ncnc2c1 [AZD2811] + O=C(c1cc(Cc2n[nH]c(=O)c3ccccc23)ccc1F)N1CCN(C(=O)C2CC2)CC1 [Olaparib] (first compound max 1 µM, 7x7, partner max 10 µM)	0.0097	0.0206	0.338	0.434	0.203	0.226	0.232	0.257	0.276	0.625	0.213	0.75
CCN(CCO)CCCOc1ccc2c(Nc3cc(CC(=O)Nc4cccc(F)c4)[nH]n3)ncnc2c1 [AZD2811] + C=CCn1c(=O)c2cnc(Nc3ccc(N4CCN(C)CC4)cc3)nc2n1-c1cccc(C(C)(C)O)n1 [AZD1775] (first compound max 1 µM, partner max 1 µM)	-0.0471	-0.0113	0.416	0.558	0.473	0.402	0.414	0.245	0.655	0.902	0.855	0.832
COc1cccc(OCCCN)c1-c1cc(Nc2cnc(C#N)cn2)n[nH]1 [Prexasertib] + CCc1c2c(nc3ccc(O)cc13)-c1cc3c(c(=O)n1C2)COC(=O)[C@]3(O)CC [SN-38] (first compound max 1 µM, 7x7, partner max 0.3 µM)	-0.0464		0.809	0.75	0.669	0.721	0.724	0.689	0.909	0.976		0.959
C=CCn1c(=O)c2cnc(Nc3ccc(N4CCN(C)CC4)cc3)nc2n1-c1cccc(C(C)(C)O)n1 [AZD1775] + C[C@@H]1COCCN1C2=NC(=NC(=C2)C3(CC3)[S@](=N)(=O)C)C4=C5C=CNC5=NC=C4 [AZD6738] (first compound max 1 µM, partner max 10 µM)	-0.0014	0.0547	0.49	0.764	0.495	0.71	0.706	0.625	0.943		0.906	0.785
CCc1c2c(nc3ccc(O)cc13)-c1cc3c(c(=O)n1C2)COC(=O)[C@]3(O)CC [SN-38] + O=C(c1cc(Cc2n[nH]c(=O)c3ccccc23)ccc1F)N1CCN(C(=O)C2CC2)CC1 [Olaparib] (first compound max 0.3 µM, 7x7, partner max 10 µM)	0.0899		0.818	0.18	0.641	0.338	0.542	0.76	0.86	0.998		0.24
CN(CCO)CC[C@H](CSc1ccccc1)Nc1ccc(S(=O)(=O)NC(=O)c2ccc(N3CCC([C@@H](O)c4ccccc4-c4ccc(Cl)cc4)CC3)cc2)cc1S(=O)(=O)C(F)(F)F [AZD4320] + CCN(CCO)CCCOc1ccc2c(Nc3cc(CC(=O)Nc4cccc(F)c4)[nH]n3)ncnc2c1 [AZD2811] (first compound max 1 µM, 7x7, partner max 1 µM)		0.0814	0.336	0.381	0.18	0.303	0.414		0.194	0.982	0.971	0.93
C=CCn1c(=O)c2cnc(Nc3ccc(N4CCN(C)CC4)cc3)nc2n1-c1cccc(C(C)(C)O)n1 [AZD1775] + O=C(c1cc(Cc2n[nH]c(=O)c3ccccc23)ccc1F)N1CCN(C(=O)C2CC2)CC1 [Olaparib] (first compound max 1 µM, partner max 10 µM)	-0.0018	0.0028	0.516	0.531	0.401	0.382	0.501	0.401	0.719		0.721	0.438
